Results from patent US8058437B2, “(Pyrroloquinoxalinyl) pyrazinecarbohydrazide-oxalic acid co-crystal for treatment of cancer and other diseases” (Novelix Pharmaceuticals, Inc., priority 2008, dated 2011).
Several values for one entry are separate records, joined by “and”; a condition that tells them apart may be missing. Identical values can stand only once. Entries after “also recorded” stand apart in the source; their conditions may differ. Like-named read-outs stand apart in the source and are kept apart here.

Key:
[1] = Pharmacokinetic experiments in rats (IV, oral suspension, oral solution); format: in vivo; conditions: rat; for bioavailability: versus mean IV AUCINF, adjusted for dose
Protocol: The oral suspension formulation was prepared by suspending the test article in 5% PEG-200/95% of a 0.5% solution of methylcellulose. The concentration of the test article was such that a dosing volume of 10 mL/kg delivered the intended dose level. The oral solution formulations of NVX-144 and NVX-412 were prepared by dissolving the test article in 10% by volume dimethyl acetamide, followed by 60% by volume PEG-400, and then adding slowly a solution of 30% Captisol® in 50 mM lactic acid to provide the remaining 30% of volume. The concentration of the test article was such that a dosing volume of 10 mL/kg delivered the intended dose level. The IV formulation of NVX-412 was prepared by dissolving the test article in 10% by volume dimethyl acetamide, followed by 10% by volume PEG-400, and then adding slowly a solution of 10% Captisol® in 50 mM lactic acid to provide the remaining 80% of volume. The concentration of the test articles was such that a dosing volume of 2.5 mL/kg delivered the intended dose level. The doses administered were based on the body weight of each animal taken shortly before dosing. The formulations were used immediately after preparation.
A total of 15 rats were assigned to the study. Five groups of three male rats each comprised the study. Each group was treated once by oral gavage or intravenous injection via the tail vein as specified in Table 3 below.
The animals were fasted overnight prior to dosing and the feed returned approximately 2 hours post-dosing. The dose for each animal was based on the most recent body weight. Oral doses were administered by gavage. Animals received 10 mL/kg per single oral dose. Intravenous doses were administered by tail vein injection. The dose for each animal was based on the most recent body weight. Animals were dosed at 2.5 mL/kg per single intravenous dose.
Blood was collected from the animals in Groups 1 through 5 for pharmacokinetic analysis. Approximately 0.3 mL of blood was collected in potassium EDTA tubes via the orbital plexus at four time points (30 minutes, 1 hour, 4 hours, and 8 hours post-dose) from each rat treated by the oral route, and the blood samples were processed to prepare plasma. Blood was collected at four time points (5 minutes, 30 minutes, 1 hour, and 2 hours post-dose) from each rat treated by the intravenous route, and the blood samples were processed to prepare plasma. Animals were terminated (without necropsy) following their final sample collection.
The whole blood samples were centrifuged (˜1500×g) for a minimum of 10 minutes in a refrigerated centrifuge (set at ˜5° C.). Plasma was prepared and transferred within 30 minutes of blood collection/centrifugation to appropriately labeled tubes. The tubes were then frozen and stored in the dark at ≦−70° C. until analysis. The plasma samples were analyzed by LC-MS/MS to determine the plasma concentrations of NVX-144 and NVX-412. Pharmacokinetic analysis of the plasma concentration data was conducted using non-compartmental analysis with WinNonlin Version 4.1.

[2] = Salt formation experiments / physical characteristics of solid forms; format: physicochemical; conditions: suitable for pharmaceutical formulation
Protocol: Thus, a series of experiments was conducted to assess the preparation of NVX-144 salts of acids other than hydrochloric acid as possible novel compounds better suited to pharmaceutical preparations. […] As expected, NVX-144 base readily formed salts with strong organic acids.
Although oxalic acid co-crystals are rare, Trask et al. have reported a co-crystal of caffeine with oxalic acid (see Trask et al., “Pharmaceutical Cocrystallization: Engineering a Remedy for Caffeine Hydration,” Crystal Growth & Design, 5, 1013-21 (2005)).
Thus NVX-144 would not be expected to form a salt with oxalic acid, a relatively strong dicarboxylic acid.

[3] = male, plasma, po, 20 mg/kg, Group 5, PO-Solution 20 mg/kg, individual animals
[4] = Group 3, PO-Suspension 20 mg/kg, Mean N=2
[5] = Group 3, PO-Suspension 20 mg/kg, individual animals
[6] = Group 5, PO-Solution 20 mg/kg, Mean N=3
[7] = Group 5, PO-Solution 20 mg/kg, individual animals
[8] = IV 5 mg/kg, individual animals, 5 mg/kg

Q: What does the source list for `O=C(NNc1nc2cc(F)ccc2n2cccc12)c1cnccn1.O=C(O)C(=O)O` [NVX-412, N′-(7-fluoropyrrolo[1,2a]quinoxalin-4-yl)pyrazine-2-carbohydrazide oxalic acid co-crystal]?
A: AUC [1, 3]: 2390 ng·h/mL; AUC(0-inf) [1, 3]: 2400 ng·h/mL; Cmax ([1]; male, plasma, po, 20 mg/kg, Group 5, PO-Solution 20 mg/kg, individual animals, read-out: Cmax): 732 ng/mL; half-life ([1]; male, plasma, po, 20 mg/kg, Group 5, PO-Solution 20 mg/kg, individual animals, read-out: T ½ (converted)): 1.18 h; Tmax ([1]; male, plasma, po, 20 mg/kg, Group 5, PO-Solution 20 mg/kg, individual animals, read-out: Tmax): 0.5 to 1 h; bioavailability ([1]; male, plasma, po, 20 mg/kg, Group 5, PO-Solution 20 mg/kg, individual animals, read-out: Bioavailability): 45.7%; plasma concentration ([1]; Group 3, PO-Suspension 20 mg/kg, 0.5 hr, individual animals): 386.99 ng/mL and 573.34 ng/mL; plasma concentration ([1]; Group 3, PO-Suspension 20 mg/kg, 1 hr, individual animals): 464.23 ng/mL and 584.12 ng/mL; plasma concentration ([1]; Group 3, PO-Suspension 20 mg/kg, 4 hr, individual animals): 181.80 ng/mL and 249.34 ng/mL; plasma concentration ([1]; Group 3, PO-Suspension 20 mg/kg, 8 hr, individual animals): 13.07 ng/mL and BLQ (BLQ = Below the Limit of Quantitation <5 ng/mL) and 5.48 ng/mL; AUC % Extrap [1, 4]: 0.68%; AUCINF [1, 4]: 2306.62 ng·h/mL; T ½ [1, 4]: 1.15 h; Cmax ([1]; Group 3, PO-Suspension 20 mg/kg, Mean N=3): 524.61 ng/mL; AUC % Extrap [1, 5]: 1.00% and 0.36%; AUCINF [1, 5]: 2200.54 ng·h/mL; AUCall [1, 5]: 1642.21 ng·h/mL and 2192.52 ng·h/mL; Cmax [1, 5]: 464.23 ng/mL and 584.12 ng/mL; T ½ [1, 5]: 1.02 h; bioavailability [1, 5]: 41.9%; plasma concentration ([1]; Group 5, PO-Solution 20 mg/kg, 0.5 hr, individual animals): 635.82 ng/mL and 509.37 ng/mL; plasma concentration ([1]; Group 5, PO-Solution 20 mg/kg, 1 hr, individual animals): 686.88 ng/mL and 489.07 ng/mL; plasma concentration ([1]; Group 5, PO-Solution 20 mg/kg, 4 hr, individual animals): 171.97 ng/mL and 298.24 ng/mL; plasma concentration ([1]; Group 5, PO-Solution 20 mg/kg, 8 hr, individual animals): 8.53 ng/mL and 5.14 ng/mL and 34.89 ng/mL; AUC % Extrap [1, 6]: 1.73%; Cmax [1, 6]: 642.71 ng/mL; T ½ [1, 6]: 1.37 h; AUC % Extrap [1, 7]: 0.61% and 0.34% and 4.24%; AUCINF [1, 7]: 2139.39 ng·h/mL and 2322.68 ng·h/mL; AUCall [1, 7]: 2132.13 ng·h/mL and 2224.16 ng·h/mL; Cmax [1, 7]: 686.89 ng/mL and 509.37 ng/mL; T ½ [1, 7]: 0.98 h and 1.96 h; Tmax [1, 7]: 0.5 h; bioavailability [1, 7]: 40.7% and 44.2%; plasma concentration ([1]; IV 5 mg/kg, 0.083 h, individual animals, 5 mg/kg): 1716.72 ng/mL and 2001.77 ng/mL; plasma concentration ([1]; IV 5 mg/kg, 0.5 h, individual animals, 5 mg/kg): 481.82 ng/mL and 461.19 ng/mL; plasma concentration ([1]; IV 5 mg/kg, 1 h, individual animals, 5 mg/kg): 278.84 ng/mL and 253.02 ng/mL; plasma concentration ([1]; IV 5 mg/kg, 2 h, individual animals, 5 mg/kg): 185.19 ng/mL and 143.93 ng/mL; AUC % Extrap ([1]; IV 5 mg/kg, Mean of 3): 18.74%; AUCINF ([1]; IV 5 mg/kg, Mean of 3, 5 mg/kg): 1314.5 ng·h/mL; Cl ([1]; IV 5 mg/kg, Mean of 3, 5 mg/kg): 63.43 mL/min/kg and 63.4273 mL/min/kg; Cmax ([1]; IV 5 mg/kg, Mean of 3, 5 mg/kg): 1842.5 ng/mL; T ½ ([1]; IV 5 mg/kg, Mean of 3, 5 mg/kg): 1.03 h; Vss ([1]; IV 5 mg/kg, Mean of 3, 5 mg/kg): 3.98512 L/kg; AUC % Extrap [1, 8]: 18.44% and 22.68% and 15.1%; AUCINF [1, 8]: 1349.72 ng·h/mL and 1277.84 ng·h/mL; AUCall [1, 8]: 1043.56 ng·h/mL and 1084.89 ng·h/mL; Cl [1, 8]: 61.7413 mL/min/kg and 65.2145 mL/min/kg; Cmax [1, 8]: 1716.7 ng/mL and 2001.8 ng/mL; T ½ [1, 8]: 1.15 h and 0.93 h; Vss [1, 8]: 4.55297 L/kg and 3.44635 L/kg; oral absorption ([1]; administered as a solution or suspension): moderate; difference in oral absorption between NVX-412 and NVX-144 ([1]; dosed as a solution): no significant difference; oral absorption / bioavailability of NVX-412 over NVX-144 free base ([1]; dosed as a suspension): more bioavailable; also recorded: slight improvement; hydrate formation / stability [2]: forms stable mono- and di-hydrates
